Test [1] has as its target T1, Epidermal growth factor receptor (Homo sapiens, UniProt P00533). The test can be described thus: Inhibition of autophosphorylation of recombinant His-tagged EGFR expressed in baculovirus infected Sf9 cells after 1 hr by DELFIA/time-resolved fluorimetry assay.
Another test relates to MCF7. The test can be described thus: Antiproliferative activity against human MCF7 cells after 48 hrs by MTT assay. Particulars: MCF7, 48 h. In kind it is functional, cell-based.
Test [2] concerns the target T1, Epidermal growth factor receptor. In words: Inhibition of EGF-stimulated EGFR autophosphorylation in human MCF7 cells at >1.5 uM treated 1 hr before EGF challenge measured after 15 mins by Western immunoblot analysis. In kind it is cell-based.

Our source for the IC50 and inhibition values is ChEMBL document CHEMBL1944626, “Design, synthesis and biological evaluation of N-phenylsulfonylnicotinamide derivatives as novel antitumor inhibitors” (Bioorg Med Chem, 2012).

SMILES strings stand for the structures. Calls of active or inactive are those of the source. No cut-off for these calls is given here.

T1 sequence (P00533 whole entry): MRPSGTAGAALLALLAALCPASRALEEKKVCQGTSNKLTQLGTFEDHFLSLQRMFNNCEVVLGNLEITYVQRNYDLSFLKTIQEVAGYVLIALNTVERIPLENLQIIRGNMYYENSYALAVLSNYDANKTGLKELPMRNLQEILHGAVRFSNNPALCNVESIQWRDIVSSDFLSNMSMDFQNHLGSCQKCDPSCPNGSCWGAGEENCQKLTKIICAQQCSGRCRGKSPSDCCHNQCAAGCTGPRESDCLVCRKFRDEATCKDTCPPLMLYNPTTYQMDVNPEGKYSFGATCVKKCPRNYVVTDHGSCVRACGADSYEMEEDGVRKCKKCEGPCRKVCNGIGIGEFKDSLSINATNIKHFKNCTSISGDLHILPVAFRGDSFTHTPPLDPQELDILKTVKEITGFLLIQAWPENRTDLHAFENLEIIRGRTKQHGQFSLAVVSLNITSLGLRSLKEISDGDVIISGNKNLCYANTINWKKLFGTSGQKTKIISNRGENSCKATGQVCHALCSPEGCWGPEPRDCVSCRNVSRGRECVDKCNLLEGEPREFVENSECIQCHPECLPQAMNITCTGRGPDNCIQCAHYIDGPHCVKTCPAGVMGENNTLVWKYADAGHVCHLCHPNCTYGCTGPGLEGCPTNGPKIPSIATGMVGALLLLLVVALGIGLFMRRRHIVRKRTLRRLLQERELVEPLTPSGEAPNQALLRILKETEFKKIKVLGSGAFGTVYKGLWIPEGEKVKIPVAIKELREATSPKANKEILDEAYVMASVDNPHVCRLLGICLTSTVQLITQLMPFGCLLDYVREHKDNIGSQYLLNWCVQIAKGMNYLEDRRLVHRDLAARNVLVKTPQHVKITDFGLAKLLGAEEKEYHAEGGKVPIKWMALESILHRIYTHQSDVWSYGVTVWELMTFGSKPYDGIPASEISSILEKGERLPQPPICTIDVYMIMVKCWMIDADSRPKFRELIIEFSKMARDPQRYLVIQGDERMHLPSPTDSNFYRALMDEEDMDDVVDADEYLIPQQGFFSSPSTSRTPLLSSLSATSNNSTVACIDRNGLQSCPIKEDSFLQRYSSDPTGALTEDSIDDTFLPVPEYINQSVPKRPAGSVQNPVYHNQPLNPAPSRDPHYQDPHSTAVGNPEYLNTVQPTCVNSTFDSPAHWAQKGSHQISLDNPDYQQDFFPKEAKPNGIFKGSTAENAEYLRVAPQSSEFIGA

`O=C(NS(=O)(=O)c1ccc(Cl)cc1)c1cccnc1`: the concentration for half-maximal inhibition (IC50) was determined as 25.4 µM in test [1] and 13 µM in the test with MCF7.

In the case of `Cc1ccc(C(=O)NS(=O)(=O)c2ccc(Br)cc2)c(Cl)n1`, the concentration for half-maximal inhibition (IC50) in test [1] stood at 2.64 µM; in the test with MCF7, 1.97 µM.

As to `O=C(NS(=O)(=O)c1ccccc1)c1ccc(Cl)nc1`, the IC50 in test [1] was above 30 µM; in the test on MCF7 it was 14.1 µM.

For `O=C(NS(=O)(=O)c1ccc(Br)cc1)c1cncc(Br)c1`, the half-maximal inhibitory concentration (IC50) in test [1] was determined as 2.08 µM; in the test with MCF7, 0.34 µM.

With `O=C(NS(=O)(=O)c1ccc(Br)cc1)c1cccnc1`, the IC50 in test [1] was above 30 µM; in the test with MCF7 it was 14.7 µM.

With `O=C(NS(=O)(=O)c1ccccc1)c1cccnc1`, the IC50 in test [1] is above 30 µM; in the test with MCF7 it was 14.4 µM.

Regarding `O=C(NS(=O)(=O)c1ccc(Br)cc1)c1ccc(Cl)nc1`, the results for the IC50 (in test [1]; with MCF7) were 29.1 µM and 9.05 µM, respectively.

For `O=C(NS(=O)(=O)c1ccc(F)cc1)c1cccnc1`, the IC50 was above 30 µM in test [1] and 16 µM in the test on MCF7.

`O=C(NS(=O)(=O)c1ccc(Cl)cc1)c1cncc(Br)c1`: the inhibition entry in test [2] was “Active”. In addition, the concentration for half-maximal inhibition (IC50) in test [1] came out at 0.09 µM; in the test with MCF7, 0.07 µM.

As for `O=C(NS(=O)(=O)c1ccc(Cl)cc1)c1cccnc1Cl`, the 50% inhibitory concentration (IC50) in test [1] was found to be 19.8 µM; in the test with MCF7, 10.2 µM.

Turning to `O=C(NS(=O)(=O)c1ccc(F)cc1)c1ccc(Cl)nc1`, the concentration for half-maximal inhibition (IC50) in test [1] was above 30 µM; with MCF7 it was 16.8 µM.

For `O=C(NS(=O)(=O)c1ccc(Cl)cc1)c1ccc(Cl)nc1`, the IC50 in test [1] worked out at 18.1 µM; in the test with MCF7, 8.07 µM.

For `O=C(NS(=O)(=O)c1ccc(Br)cc1)c1cccnc1Cl`, the figures for the half-inhibitory concentration (IC50) (in test [1]; in the test on MCF7) were 15.7 µM and 11.4 µM, respectively.

As for `Cc1ccc(S(=O)(=O)NC(=O)c2cccnc2Cl)cc1`, the IC50 in test [1] amounted to 27 µM; in the test with MCF7, 12.5 µM.

For the molecule `Cc1ccc(C(=O)NS(=O)(=O)c2ccccc2)c(Cl)n1`, the results for the half-inhibitory concentration (IC50) (in test [1]; in the test with MCF7) were 21.6 µM and 13.4 µM, respectively.

Take `Cc1ccc(S(=O)(=O)NC(=O)c2ccc(Cl)nc2)cc1`: the 50% inhibitory concentration (IC50) in test [1] is above 30 µM; in the test with MCF7, 17.2 µM.

Consider `Cc1ccc(S(=O)(=O)NC(=O)c2cccnc2)cc1`, for which the concentration for half-maximal inhibition (IC50) amounted to 24.8 µM in test [1] and 12 µM in the test with MCF7.

Take `O=C(NS(=O)(=O)c1ccc(F)cc1)c1cccnc1Cl`: the results for the IC50 (in test [1]; with MCF7) were 28.7 µM and 12.5 µM, respectively.

Consider `Cc1ccc(S(=O)(=O)NC(=O)c2ccc(C)nc2Cl)cc1`, for which the figures for the IC50 (in test [1]; in the test on MCF7) were 15 µM and 8.52 µM, respectively.

Take `O=C(NS(=O)(=O)c1ccc(F)cc1)c1cncc(Br)c1`: the half-maximal inhibitory concentration (IC50) came to 3.27 µM in test [1] and 0.98 µM in the test on MCF7.

With `O=C(NS(=O)(=O)c1ccccc1)c1cccnc1Cl`, the 50% inhibitory concentration (IC50) was above 30 µM in test [1] and 14 µM in the test on MCF7.

With `Cc1ccc(S(=O)(=O)NC(=O)c2cncc(Br)c2)cc1`, the 50% inhibitory concentration (IC50) in test [1] stood at 12.1 µM; in the test on MCF7 it was 9.37 µM.

As for `Cc1ccc(C(=O)NS(=O)(=O)c2ccc(Cl)cc2)c(Cl)n1`, the results for the half-maximal inhibitory concentration (IC50) (in test [1]; in the test on MCF7) were 1.19 µM and 1.35 µM, respectively.
